Three molecules from paper PMC10812557, “Progressive Design of a Ranatuerin-2 Peptide from Amolops wuyiensis: Enhancement of Bioactivity and In Vivo Efficacy” (Antibiotics, 2023) can be followed below.

The test system of data set [1] is S. aureus (NCTC 10788). Kind of data set: Time–killing assay. The settings on record: control antibiotic, 3 h incubation. The class given is cell-based, Staphylococcus aureus. Here is the method: (§1) S. aureus (NCTC 10788), E. coli (ATCC 8739), MRSA (NCTC 12493), and P. aeruginosa (ATCC 9027) were used in this assay. Treatments of 2 × MIC, 1 × MIC, and 0.5 × MIC of [Lys^4,19, Leu^20]R2AW(1-22)-NH2 were prepared and mixed with 198 μL of diluted bacteria (5 × 10^5 CFU/mL). At each time point (0, 10, 20, 30, 60, 90, 120, and 180 min), 10 μL of peptide and bacteria mixture was dropped onto the MHA plate. After overnight incubation, the number of bacterial colonies was calculated. The CFU/mL could be calculated using the formula CFU/mL = (Number of colonies × dilution factor)/volume of culture.

Data set [2] relates to MRSA (NCTC 12493). As to the kind of experiment: Time–killing assay. It is filed as cell-based, methicillin-resistant Staphylococcus aureus. The settings on record: control antibiotic, 3 h incubation. On the procedure: as §1
In data set [3] the test system is MRSA (NCTC 12493). As to the kind of experiment: microbe, parasite or virus in culture. It is filed as cell-based. An excerpt:
(§2) The MIC and MBC assays were used to assess the inhibitory activities of all 5 analogues of R2AW on the growth of planktonic microorganisms. The MIC is the lowest concentration that prevents the viable growth of bacteria. The MBC is the lowest concentration that results in bacterial death. Six microorganisms were used to detect the antimicrobial activity of peptides, including Gram-positive bacteria S. aureus (NCTC 10788), MRSA (NCTC 12493), Enterococcus faecalis (E. faecalis) (NCTC 12697), Gram-negative bacteria E. coli […], Klebsiella pneumoniae (K. pneumoniae) (ATCC 43816), and Pseudomonas aeruginosa (P. aeruginosa) (ATCC 9027). According to the assay described previously, the microorganisms were inoculated at 37 °C overnight and diluted to 5 × 10^5 CFU/mL after reaching the logarithmic growth period. The peptide stock solution at the concentration of 512 × 10^2 μM was prepared and diluted to 100 μM by a 2-fold dilution. One μL of each concentration of peptide solution was incubated with 99 μL of bacterial subculture in the 96-well plate for 18 h at 37 °C. The absorbance was determined at a wavelength of 550 nm using a Synergy HT plate reader (Bio Tek, Washington, DC, USA). […] As for those wells that were clearly visible, 20 μL of the solution was dropped onto the Mueller Hinton agar (MHA) dish and then incubated at 37 °C overnight. The lowest concentration with no colony growth was determined as the MBC.

Data set [4] concerns S. aureus (NCTC 10788). As to the kind of experiment: microbe, parasite or virus in culture. The class given is cell-based.
Text: as §2

Data set [5] deals with E. faecium (NTCC 12697). As to the kind of experiment: microbe, parasite or virus in culture. It is filed as cell-based.
Text: as §2

The test system of data set [6] is E. coli (ATCC 8739). It is filed as cell-based, Escherichia coli. Here is the method: (§3) As a previous study described in detail, the ability of R2AW and its analogues to inhibit and eradicate the formation of biofilm was investigated. The MBIC is the lowest concentration which inhibits the formation of biofilm. The MBEC is the minimum concentration that eradicates biofilm. Six bacterial strains were used, as described above. Briefly, the bacteria were cultured and then diluted to 5 × 10^5 CFU/mL. In MBIC assays, 1 μL of each concentration of R2AW and its analogues (ranging from 512 × 10^2 μM to 100 μM) was mixed with 99 μL of diluted bacterial suspension in a 96-well plate for 16-20 h at 37 °C. As for MBEC assays, 100 μL of cultured bacteria were seeded in a 96-well plate and incubated on the shaking incubator at 37 °C overnight for biofilm formation. Subsequently, each well was rinsed twice with 100 μL sterile PBS to remove planktonic cells, and then replaced with 100 μL of each concentration (ranging from 512 μM to 1 μM) of peptides. After 24 h incubation, the biofilm was washed twice with 100 μL of PBS and fixed with methanol. Next, the same volume of 0.1% crystal violet solution (Sigma-Aldrich, Gillingham, UK) was added to each well to stain the biofilm. After that, 100 μL of 30% of acetic acid (Sigma-Aldrich, Gillingham, UK) was transferred to each well for dissolution. The solutions were transferred into a new 96-well plate and the absorbances of wells was monitored using a Synergy HT plate reader set to 595 nm.

Data set [7] can be described thus: Haemolysis assay. The class given is cell-based, horse. The settings on record: horse. Here is the method:
The haemolytic activity of R2AW and its five designed analogues on mammalian erythrocytes was evaluated using 2% defibrinated horse blood (TCS Biosciences Ltd., Buckingham, UK) as per a previous report. Two mL of fresh horse blood was transferred into a 50 mL tube and then washed with sterilised PBS. The supernatant was removed after centrifuging (930× g, 5 min). The centrifugation procedure was repeated until the supernatant was clear. After washing, the red blood cell pellet was diluted with PBS to achieve a 4% (v/v) erythrocyte suspension. The concentrations of R2AW and its designed derivatives were prepared from 512 μM to 2 μM by two-fold dilution in sterilised PBS. One hundred µL of red blood cell suspension was added into a 1.5 mL tube treated with the same volume of each concentration of peptide and incubated at 37 °C for 2 h. The red blood cell suspensions treated with 0.2% Triton X-100 and with PBS were regarded as positive control and negative control. After centrifugation at 930× g for 10 min, 100 μL of suspension was transferred to a 96-well plate, and the absorbance was obtained by use of a Synergy HT plate reader. The degree of haemolysis could be calculated using the following formula: Haemolysis = (absorbance (experimental groups) − absorbance (negative control))/(absorbance (positive control) − absorbance (negative control)) × 100%.

The test system of data set [8] is E. faecium (NTCC 12697). The class given is cell-based. On the procedure:
as §3

Data set [9] concerns MRSA (NCTC 12493). The class given is cell-based, methicillin-resistant Staphylococcus aureus. The note with it: NCTC 12493. Here is the method: as §3
Data set [10] deals with P. aeruginosa (ATCC 9027). It is filed as cell-based, Pseudomonas aeruginosa. On the procedure:
as §3

The subject of data set [11] is K. pneumoniae (ATCC 43816). The class given is cell-based, Klebsiella pneumoniae. On the procedure:
as §3

Data set [12] concerns K. pneumoniae (ATCC 43816). It is filed as cell-based.
Text: as §2

The subject of data set [13] is E. coli (ATCC 8739). The class given is cell-based.
Text: as §2

The subject of data set [14] is P. aeruginosa (ATCC 9027). It is filed as cell-based.
Text: as §2

For data set [15], the system named is H838. The class given is cell-based, human. The settings on record: 24 h. Here is the method:
(§4) Five human cancer cell lines of non-small-cell lung cancer H838, human prostate carcinoma PC-3, human neuronal glioblastoma U251MG, human breast cancer cell MCF-7, and colorectal carcinoma HCT116 were used to detect the antiproliferative abilities of R2AW and its five analogues. According to the procedures in a previous article, cells (8000 cells/well) were seeded into the 96-well tissue culture plates and incubated at 37 °C with 5% CO2 overnight. The solutions of R2AW and its analogues at concentrations of 10^−4 M to 10^−9 M were prepared in the serum-free medium. Next, cells in each well were treated with 100 μL of each peptide solution for 24 h. Subsequently, 10 μL of 5 mg/mL MTT (3-(4, 5-Dimethylthiazol-2-yl-)-2, 5-Diphehyltetrazolium Bromide) was added to each well followed by 37 °C incubation for 2 h. After that, the liquid in each well was removed and 100 μL of DMSO was added to dissolve the purple formazan. The plate was placed on a shaking incubator for 10 min, and the absorbance was detected at 550 nm using a Synergy HT plate reader (Biotech, Minneapolis, MN, USA).

Data set [16] deals with HCT116. It is filed as cell-based, human. The note with it: 24 h. Here is the method: as §4
Data set [17] has as its system MCF-7. The class given is cell-based, human. The note with it: 24 h. On the procedure: as §4
The subject of data set [18] is PC-3. The class given is cell-based, human. The note with it: 24 h. On the procedure: as §4
The subject of data set [19] is U251MG. The class given is cell-based, human. The settings on record: 24 h. Here is the method: as §4
Data set [20] relates to S. aureus (NCTC 10788). It is filed as cell-based, Staphylococcus aureus. Here is the method: as §3
Data set [21] deals with P. aeruginosa (ATCC 9027). Kind of data set: Time–killing assay. The note with it: peptide control. It is filed as cell-based, Pseudomonas aeruginosa. On the procedure: as §1
Data set [22] has as its system E. coli (ATCC 8739). Kind of data set: Time–killing assay. The class given is cell-based, Escherichia coli. The note with it: peptide control. On the procedure:
as §1

The mark [23] stands for this setting: Staphylococcus aureus, NCTC10788.

pIC50: −log10 of the molar value. Values joined by “and” are separate entries in the source; they are usually repeats but may differ in a detail not shown here. Equal entries are not always repeated. Where two headings read alike, the source gives them in different places. Peptide text beside a SMILES is read from it.

On to `CN[C@H](CC(C)C)C(=O)N[C@H]1C(=O)N[C@@H](CC(N)=O)C(=O)N[C@H]2C(=O)N[C@H]3C(=O)N[C@H](C(=O)N[C@H](C(=O)O)c4cc(O)cc(O)c4-c4cc3ccc4O)[C@H](O)c3ccc(c(Cl)c3)Oc3cc2cc(c3O[C@@H]2O[C@H](CO)[C@@H](O)[C@H](O)[C@H]2O[C@H]2C[C@](C)(N)[C@H](O)[C@H](C)O2)Oc2ccc(cc2Cl)[C@H]1O` [Vancomycin, reference compound], for which the “killing effect in time–killing curve” value in data set [1] and in data set [2] was “could only inhibit the growth of bacteria” in each case. Moreover, the MBC in data set [3] (Staphylococcus aureus) is 0.7 µg/mL and 0.5 µM; in [4] (setting [23]) it was 0.7 µg/mL and 0.5 µM; in data set [5] (Enterococcus faecium), > 92.7 µg/mL and > 64 µM. Also, the MIC is 0.7 µg/mL and 0.5 µM in data set [3] (Staphylococcus aureus); 0.7 µg/mL and 0.5 µM in [4] (setting [23]); 0.7 µg/mL and 0.5 µM in data set [5] (Enterococcus faecium).

Regarding `CSCC[C@H](NC(=O)[C@H](Cc1ccccc1)NC(=O)CN)C(=O)N[C@@H](CCCCN)C(=O)N[C@H](C(=O)N[C@@H](Cc1c[nH]c2ccccc12)C(=O)N[C@@H](CCCCN)C(=O)N[C@@H](CC(N)=O)C(=O)N[C@H](C(=O)N[C@@H](Cc1c[nH]c2ccccc12)C(=O)N[C@@H](CCCCN)C(=O)N[C@@H](CC(N)=O)C(=O)N[C@H](C(=O)N[C@@H](C)C(=O)N[C@@H](C)C(=O)N[C@H](C(=O)N[C@@H](CC(C)C)C(=O)N[C@@H](CC(C)C)C(=O)N[C@@H](CCCCN)C(=O)N[C@@H](CC(C)C)C(=O)N[C@@H](CC(C)C)C(=O)N[C@@H](CCCCN)C(N)=O)[C@@H](C)O)C(C)C)C(C)C)[C@@H](C)O` [[Trp^6,10]R2AW(1-22)-NH2] (H-GFMKTWKNVWKNVAATLLKLLK-NH2; N-terminus assumed), the MBEC is recorded as 256 µM in data set [6]; over 512 µM in data set [8]; over 512 µM in data set [9]; 512 µM in data set [10]; 256 µM in [11]; 512 µM in [20]. Besides, the MBIC in data set [6] was found to be 4 µM; in data set [8] it was 8 µM; in data set [9] it was 8 µM; in data set [10], 32 µM; in [11], 16 µM; in data set [20], 8 µM. Besides, the hemolysis at 2 h, 2 µM in data set [7] is about 20%. Moreover, the MBC in data set [12] (ATCC 43816, 18 h) is reported as 82.8 mg/L; in [13] (ATCC 8739, 18 h), 41.4 mg/L; in data set [14] (ATCC 9027, 18 h), 166 mg/L; in data set [3] (MRSA (NCTC 12493)) it was 20.7 mg/L; in data set [4] (NCTC 10788, 18 h), 20.7 mg/L; in data set [5] (NTCC 12697, 18 h), 41.4 mg/L. Moreover, the MIC in data set [12] (ATCC 43816, 18 h) came out at 41.4 mg/L; in [13] (ATCC 8739, 18 h) it was 20.7 mg/L; in data set [14] (ATCC 9027, 18 h), 82.8 mg/L; in data set [3] (MRSA (NCTC 12493)), 10.4 mg/L; in [4] (NCTC 10788, 18 h), 10.4 mg/L; in data set [5] (NTCC 12697, 18 h), 20.7 mg/L. Moreover, the pIC50 was 5.47 in data set [15]; 5.27 in data set [16]; 5.27 in data set [17]; 5.76 in data set [18]; 5.47 in data set [19].

Regarding Colistin [reference compound], the “killing effect in time–killing curve” value in [21] and in data set [22] was “rapid bacterial killing effect” in each case. Besides, the MBC in data set [12] (K. pneumoniae (ATCC 43816)) was 18.5 mg/L and 16 µM; in data set [13] (E. coli (ATCC 8739)) it was 0.3 mg/L and 0.25 µM; in data set [14] (P. aeruginosa (ATCC 9027)), 2.3 mg/L and 2 µM. The MIC in data set [12] (K. pneumoniae (ATCC 43816)) is 18.5 mg/L and 16 µM; in data set [13] (E. coli (ATCC 8739)) it was 0.1 mg/L and 0.125 µM; in [14] (P. aeruginosa (ATCC 9027)) it was 1.2 mg/L and 1 µM.
